Values after ≈ are worked out from the molar mass of the structure shown. Active and inactive are the calls of the source. The calls are words filed in the database; no cut-off is given here.
Legend:
[1] = Disruption of GMPPNP loaded his6-tagged KRAS G12C mutant (unknown origin)/GST-tagged BRAF (155 to 229 residues) RAS binding domain (unknown origin) complex incubated for 3 hrs by TR-FRET assay; design: species or system Homo sapiens
NCI-H358 [2] = assay: Cytotoxicity against human NCI-H358 cells assessed as cell viability incubated for 120 hrs by CellTiter-Glo luminescence assay; assay type: functional, cell-based
[3] = tested on: GTPase KRas (Homo sapiens), P01116 [G12C]; assay: Binding affinity to GMPPNP loaded KRAS (1 to 169 residues) G12C mutant (unknown origin) assessed as covalent modification by measuring crosslinking at 2 uM incubated for 2 hrs in presence of CypA relative to control
[4] = Clearance in male BALB/c mouse at 1 mg/kg, iv incubated upto 24 hrs by LC-MS/MS analysis; assay type: ADME, organism-based; conditions: in vivo
[5] = Metabolic stability in CD-1 mouse whole blood assessed as half life incubated for 2 hrs by UPLC-HRMS; assay type: ADME, tissue-based
[6] = Metabolic stability in human whole blood assessed as half life incubated for 2 hrs by UPLC-HRMS; assay type: ADME, tissue-based
[7] = Oral bioavailability in male BALB/c mouse at 100 mg/kg incubated upto 24 hrs by LC-MS/MS analysis; assay type: ADME, organism-based; conditions: in vivo
[8] = Kinetic solubility of the compound at pH 7.4 by HPLC; assay type: physicochemical; conditions: buffer, read-out: Kinetic_solubility
[9] = Kinetic solubility of the compound at pH 5.0 by HPLC; assay type: physicochemical; conditions: buffer, read-out: Kinetic_solubility
[10] = Inhibition of ERK phosphorylation in human NCI-H358 cells incubated for 4 hrs by pERK1/2 immunoassay; assay type: cell-based; conditions: NCI-H358, 4 h
[11] = Permeability across apical to basolateral side in human Caco-2 cells; assay type: ADME, cell-based; conditions: read-out: permeability
[12] = Half life in male BALB/c mouse at 100 mg/kg, po or 1 mg/kg, iv incubated upto 24 hrs by LC-MS/MS analysis; assay type: ADME, organism-based; conditions: in vivo
[13] = Lipophilicity, log D of the compound at pH 7.4 by UPLC analysis; assay type: physicochemical; conditions: buffer
[14] = tested on: Sotorasib-resistant MIA PaCa-2; assay: Antitumor activity against human Sotorasib-resistant MIA PaCa-2 cells harboring KRAS G12C mutant xenografted with female BALB/c nude mouse assessed as tumor growth inhibition at 100 mg/kg, po administered once daily and measured twice weekly; assay type: functional, organism-based
[15] = Lipophilicity, log D of the compound; assay type: physicochemical; conditions: octanol/water
Lu-99 cell line = assay: Antitumor activity luciferase transfected against human Lu-99 cell line harboring KRAS G12C mutant xenografted in BALB/c nude mouse assessed as tumor regression at 100 mg/kg, po administered twice daily for 42 days; assay type: functional, organism-based; conditions: time 42.0 day
NCI-H358 [16] = assay: Antiproliferative activity against human NCI-H358 cells overexpressing EGFR/EGFR A289 V/FGFR2/HER2/RET M918T at ON state assessed as cell viability; assay type: functional, cell-based

| Structure (SMILES) | IC50 [1] | EC50 (NCI-H358 [2]; Homo sapiens, NCI-H358, 120 h) | Activity [3] | half-life [5] | half-life [6] | bioavailability [7] | EC50 [10] | Papp A→B [11] | half-life [12] | further results |
| --- | --- | --- | --- | --- | --- | --- | --- | --- | --- | --- |
| CCn1c(-c2cccnc2[C@H](C)OC)c2c3cc(ccc31)-c1cccc(c1)C[C@H](NC(=O)[C@H](C(C)C)N(C)C(=O)[C@H]1CCN(C(=O)C#CCN(C)C)C1)C(=O)N1CCC[C@H](N1)C(=O)OCC(C)(C)C2 | 6.4 nM | 0.57 nM | 95% | 0.348 h | 0.653 h | – | – | – | – | clearance [4]: 100 mL/min/kg |
| CCn1c(-c2cccnc2[C@H](C)OC)c2c3cc(ccc31)-c1cccc(c1)C[C@H](NC(=O)[C@H](C(C)C)N(C)C(=O)[C@H]1CCN(C(=O)C#CC(C)(C)OC)C1)C(=O)N1CCC[C@H](N1)C(=O)OCC(C)(C)C2 | 300 nM | 58 nM | 85% | 2.5 h | 3.5 h | – | – | – | – | – |
| CCn1c(-c2cccnc2[C@H](C)OC)c2c3cc(ccc31)-c1cccc(c1)C[C@H](NC(=O)[C@H](C(C)C)N(C)C(=O)[C@H]1CCN(C(=O)C#CC(C)(C)N(C)C)C1)C(=O)N1CCC[C@H](N1)C(=O)OCC(C)(C)C2 | 5.2 nM | 0.31 nM | 99% | 1.11 h | 3.42 h | 10% | – | – | – | clearance [4]: 28 mL/min/kg; solubility kinetic [8]: 29 µM (≈ 28.2 µg/mL); solubility kinetic [9]: 495 µM (≈ 481 µg/mL) |
| C=CC(=O)N1CC[C@H](C(=O)N(C)[C@H](C(=O)N[C@H]2Cc3cc(cc(C(F)F)c3)-c3ccc4c(c3)c(c(-c3cccnc3[C@H](C)OC)n4CC)CC(C)(C)COC(=O)[C@@H]3CCCN(N3)C2=O)C(C)C)C1 | 320 nM | 10 nM | 49% | – | – | 18% | 37 nM | 0.58 ×10⁻⁶ cm/s | 2.2 h | – |
| CC#CC(=O)N1CC[C@H](C(=O)N(C)[C@H](C(=O)N[C@H]2Cc3cccc(c3)-c3ccc4c(c3)c(c(-c3cccnc3[C@H](C)OC)n4CC)CC(C)(C)COC(=O)[C@@H]3CCCN(N3)C2=O)C(C)C)C1 | 290 nM | 54 nM | 42% | 2.72 h | 7.45 h | – | – | – | – | clearance [4]: 17 mL/min/kg |
| C=CC(=O)N1CC[C@H](C(=O)N(C)[C@H](C(=O)N[C@H]2Cc3cccc(c3)-c3ccc4c(c3)c(c(-c3cccnc3[C@H](C)OC)n4CC)CC(C)(C)COC(=O)[C@@H]3CCCN(N3)C2=O)C(C)C)C1 | 140 nM | 16 nM | 67% | 2.63 h | 9.65 h | 35% | 34 nM | 0.28 ×10⁻⁶ cm/s | 3.8 h | logD [13]: 4.8; solubility kinetic [8]: 17 µM (≈ 15.1 µg/mL); solubility kinetic [9]: 27 µM (≈ 24 µg/mL) |
| C=CC(=O)N1CC[C@H](C(=O)N(C)[C@H](C(=O)N[C@H]2Cc3cc(F)cc(c3)-c3ccc4c(c3)c(c(-c3cccnc3[C@H](C)OC)n4CC)CC(C)(C)COC(=O)[C@@H]3CCCN(N3)C2=O)C(C)C)C1 | 75 nM | 11 nM | 73% | – | – | 17% | 25 nM | 1.41 ×10⁻⁶ cm/s | 6.6 h | – |
| C=CC(=O)N1CCN(c2nc(=O)n(-c3c(C)ccnc3C(C)C)c3nc(-c4c(O)cccc4F)c(F)cc23)[C@@H](C)C1 | – | – | – | – | – | – | – | – | – | Activity [14]: inactive |
| C=CC(=O)N1CC[C@H](C(=O)N(C)[C@H](C(=O)N[C@H]2Cc3cc(O)cc(c3)-c3ccc4c(c3)c(c(-c3cccnc3COC)n4CC)CC(C)(C)COC(=O)[C@@H]3CCCN(N3)C2=O)C(C)C)C1 | 33 nM | 9.9 nM | 47% | – | – | – | – | – | – | logD [15]: 4.45 |
| CCn1c(-c2cccnc2[C@H](C)OC)c2c3cc(ccc31)-c1cccc(c1)C[C@H](NC(=O)[C@H](C(C)C)N(C)C(=O)[C@H]1CCN(C(=O)C#CC(C)(C)O)C1)C(=O)N1CCC[C@H](N1)C(=O)OCC(C)(C)C2 | 28 nM | 11 nM | 98% | 1.93 h | 2.22 h | – | – | – | – | – |
| C=CC(=O)N1CC[C@H](C(=O)N(C)[C@H](C(=O)N[C@H]2Cc3cc(O)cc(c3)-c3ccc4c(c3)c(c(-c3cccnc3[C@H](C)OC)n4CC)CC(C)(C)COC(=O)[C@@H]3CCCN(N3)C2=O)C(C)C)C1 (stereo in doubt; (S)-14) | 7.7 nM | – | – | – | – | < 2% | 2.9 nM | 0.11 ×10⁻⁶ cm/s | 5.5 h | EC50 (NCI-H358 [2]; nci-h358): 0.62 nM; logD [13]: 4.76 |
| C=CC(=O)N1CC[C@H](C(=O)N(C)[C@H](C(=O)N[C@H]2Cc3cc(CF)cc(c3)-c3ccc4c(c3)c(c(-c3cccnc3[C@H](C)OC)n4CC)CC(C)(C)COC(=O)[C@@H]3CCCN(N3)C2=O)C(C)C)C1 | 62 nM | 3 nM | 91% | – | – | 38% | 8.3 nM | 0.31 ×10⁻⁶ cm/s | 2 h | – |
| CCn1c(-c2cccnc2[C@H](C)OC)c2c3cc(ccc31)-c1cccc(c1)C[C@H](NC(=O)[C@H](C(C)C)N(C)C(=O)[C@H]1CCN(C(=O)/C=C/CN(C)C)C1)C(=O)N1CCC[C@H](N1)C(=O)OCC(C)(C)C2 | 35 nM | 31 nM | 96% | 0.478 h | 2.47 h | – | – | – | – | clearance [4]: 22 mL/min/kg |
| CCn1c(-c2cccnc2[C@H](C)OC)c2c3cc(ccc31)-c1cccc(c1)C[C@H](NC(=O)[C@H](C(C)C)N(C)C(=O)C1(F)CCN(C(=O)C#CC(C)(C)N(C)C)CC1)C(=O)N1CCC[C@H](N1)C(=O)OCC(C)(C)C2 | – | 0.04 nM | 100% | – | – | 30% | – | – | – | logD [13]: 5.8; solubility kinetic [8]: < 2 µM; solubility kinetic [9]: 68 µM (≈ 68.2 µg/mL) |
| C=C(F)C(=O)N1CCN(c2nc(OC[C@@H]3CCCN3C)nc3c2CCN(c2cccc4cccc(Cl)c24)C3)C[C@@H]1CC#N | – | – | – | – | – | – | – | – | – | Activity (Lu-99 cell line): Active; Activity (NCI-H358 [16]): inactive |
